Measured values reported in patent US7498349B2, “Biaryl compounds having anti-infective activity” (Genesoft Pharmaceuticals, Inc., priority 2002, dated 2009).

Tests used:
[1] = system: E. faecium (ATCC 51559, VRE); conditions: E. faecium ATCC 51559, vancomycin resistant strain (VRE)
Text: (§1) In vitro biological activity data were collected for a variety of microorganisms, including Bacillus cereus (ATCC 11778), Staphylococcus aureus (ATCC 33591; ATCC 27660, a methicillin resistant strain (MRSA); ATCC 13709, a methicillin sensitive strain (MSSA)), Escherichia coli (ATCC 25922), Enterococcus faecalis (ATCC 29212), Streptococcus pneumoniae (ATCC 49619; ATCC 51422, a penicillin resistant strain (PRSP)), Enterococcus faecium (ATCC 51559, a vancomycin resistant strain (VRE)), and Staphylococcus epidermidis (ATCC 12228). Additionally, antifungal activity data were collected for Candida albicans (ATCC 38247).
(§2) Compounds according to this invention were screened for their in vitro activities against selected species of bacteria and fungi. The minimal inhibition concentration (MIC) of these compounds was determined using the National Committee for Clinical Laboratory Standards (NCCLS) broth microdilution assay in microtiter plates, as set forth in: (1) the guidelines of the National Committee for Clinical Laboratory Standards (NCCLS) Document M7-A4 (NCCLS, 1997); (2) the guidelines of the National Committee for Clinical Laboratory Standards (NCCLS) Document M11-A4 (NCCLS, 1997); and (3) the guidelines and reference method of the National Committee for Clinical Laboratory Standards (NCCLS) Document M27 -T (NCCLS, 1995). For antifungal assays, the method recommended in Murray, PR., 1995 Manual of Clinical Microbiology (ASM Press, Washington, D.C.), was employed.
(§3) (MIC values are keyed in the same manner as Table B.)

[2] = system: S. pneumoniae (ATCC 51422, PRSP); conditions: S. pneumoniae ATCC 51422, penicillin resistant strain (PRSP)
Text: as §1, §2, §3

[3] = system: C. albicans ATCC 38247; test: MIC, antifungal assay; format: cell-based, Candida albicans; conditions: C. albicans ATCC 38247
[4] = system: S. aureus ATCC 13709; test: MIC, NCCLS broth microdilution assay; format: cell-based, Staphylococcus aureus; conditions: S. aureus ATCC 13709, methicillin sensitive strain (MSSA)
[5] = system: E. faecalis ATCC 29212; test: MIC, NCCLS broth microdilution assay; format: cell-based, Enterococcus faecalis; conditions: E. faecalis ATCC 29212
[6] = system: S. pneumoniae ATCC 49619; test: MIC, NCCLS broth microdilution assay; format: cell-based, Streptococcus pneumoniae; conditions: S. pneumoniae ATCC 49619
[7] = system: B. cereus ATCC 11778; test: MIC, NCCLS broth microdilution assay; format: cell-based, Bacillus cereus; conditions: B. cereus ATCC 11778
[8] = system: S. epidermidis ATCC 12228; test: MIC, NCCLS broth microdilution assay; format: cell-based, Staphylococcus epidermidis
[9] = system: E. coli ATCC 25922; test: MIC, NCCLS broth microdilution assay; format: cell-based, Escherichia coli; conditions: E. coli ATCC 25922
[10] = system: S. aureus ATCC 27660; test: MIC, NCCLS broth microdilution assay; format: cell-based, Staphylococcus aureus; conditions: S. aureus ATCC 27660, methicillin resistant strain (MRSA)
[11] = system: S. aureus ATCC 33591; test: MIC, NCCLS broth microdilution assay; format: cell-based, Staphylococcus aureus; conditions: S. aureus ATCC 33591

SMILES | Minimum Inhibitory Concentration (MIC) [1] | Minimum Inhibitory Concentration (MIC) [2] | Minimum Inhibitory Concentration (MIC) [3] | Minimum Inhibitory Concentration (MIC) [4] | Minimum Inhibitory Concentration (MIC) [5] | Minimum Inhibitory Concentration (MIC) [6] | Minimum Inhibitory Concentration (MIC) [7] | Minimum Inhibitory Concentration (MIC) [8] | Minimum Inhibitory Concentration (MIC) [9] | Minimum Inhibitory Concentration (MIC) [10] | Minimum Inhibitory Concentration (MIC) [11]
CN(C)CCCNc1ncccc1C(=O)Nc1ccc(-c2cc3ccccc3o2)cc1 [Compound A-11] | +++ (MIC ≦ 4) | + (12 ≦ MIC ≦ 32) | +++ (MIC ≦ 4) | +++ (MIC ≦ 4) | +++ (MIC ≦ 4) | + (12 ≦ MIC ≦ 32) | +++ (MIC ≦ 4) | +++ (MIC ≦ 4) | >32 mg/L | +++ (MIC ≦ 4) | +++ (MIC ≦ 4)
Cc1ccc2nc(-c3ccc(NC(=O)c4nsc(NCCCN)c4Cl)cc3)sc2c1 [Compound A-53] | +++ (MIC ≦ 4) | + (12 ≦ MIC ≦ 32) | >32 mg/L | +++ (MIC ≦ 4) | +++ (MIC ≦ 4) | >32 mg/L | +++ (MIC ≦ 4) | +++ (MIC ≦ 4) | >32 mg/L | +++ (MIC ≦ 4) | +++ (MIC ≦ 4)
NCCCNc1snc(C(=O)Nc2ccc(-c3cc4ccccc4o3)cc2)c1Cl [Compound A-2] | +++ (MIC ≦ 4) | + (12 ≦ MIC ≦ 32) | ++ (4 < MIC < 12) | +++ (MIC ≦ 4) | +++ (MIC ≦ 4) | + (12 ≦ MIC ≦ 32) | +++ (MIC ≦ 4) | +++ (MIC ≦ 4) | >32 mg/L | +++ (MIC ≦ 4) | +++ (MIC ≦ 4)
NCCCCNc1snc(C(=O)Nc2ccc(-c3cc4ccccc4s3)nc2)c1Cl [Compound A-68] | +++ (MIC ≦ 4) | >32 mg/L | +++ (MIC ≦ 4) | +++ (MIC ≦ 4) | +++ (MIC ≦ 4) | >32 mg/L | +++ (MIC ≦ 4) | +++ (MIC ≦ 4) | >32 mg/L | +++ (MIC ≦ 4) | +++ (MIC ≦ 4)
